Results on 25 compounds are retold here after US8455451B2, “2'-fluoro substituted carba-nucleoside analogs for antiviral treatment” (Gilead Sciences, Inc., priority 2009, dated 2013).

The target in data set [1] is T1, wild type HCV Δ21 NS5b polymerase (Hepatitis C virus genotype 1b, UniProt Q9WMX2).
T1 construct: 75 nM HCV Δ21 NS5b polymerase
Nature of the data set: HCV IC50 determination, NS5b polymerase assay, wild type enzyme. Type of data set: biochemical. As for the experimental part:
(§1) Assay Protocol: Either wild type or S282T (Migliaccio, et al, J. Biol. Chem. 2003, 49164-49170; Klumpp, et al., J. Biol. Chem. 2006, 3793-3799) mutant polymerase enzyme was used in this assay. NS5b polymerase assay (40 μL) was assembled by adding 28 μL, polymerase mixture (final concentration: 50 mM Tris-HCl at pH 7.5, 10 mM KCL, 5 mM MgCl2, 1 mM DTT, 10 mM EDTA, 4 ng/μL of RNA template, and 75 nM HCV Δ21 NS5b polymerase) to assay plates followed by 4 μL of compound dilution. The polymerase and compound were pre-incubated at 35° C. for 10 minute before the addition of 8 μL of nucleotide substrate mixture (33P-α-labeled competing nucleotide at KM and 0.5 mM of the remaining three nucleotides). The assay plates were covered and incubated at 35° C. for 90 min. Reactions were then filtered through 96-well DEAE-81 filter plates via vacuum. The filter plates were then washed under vacuum with multiple volumes of 0.125 M NaHPO4, water, and ethanol to remove unincorporated label. Plates were then counted on TopCount to assess the level of product synthesis over background controls. The IC50 value is determined using Prism fitting program.

Data set [2] addresses T2, S282T mutant HCV Δ21 NS5b polymerase (Hepatitis C virus genotype 1b, UniProt Q9WMX2, S2701T).
T2 construct: 75 nM HCV Δ21 NS5b polymerase
The data set can be described thus: biochemical. Conditions: for fold shift (S282T IC50 vs WT IC50): Note of Table II. As for the experimental part: as §1

Data set [3] deals with HCV replicon cells. Nature of the data set: HCV EC50 determination, replicon luciferase assay. Type of data set: cell-based. Conditions: Hepatitis C virus, 72 h. As for the experimental part:
Replicon cells were seeded in 96-well plates at a density of 8×10^3 cells per well in 100 μL of culture medium, excluding Geneticin. Compound was serially diluted in 100% DMSO and then added to the cells at a 1:200 dilution, achieving a final concentration of 0.5% DMSO and a total volume of 200 μL. Plates were incubated at 37° C. for 3 days, after which culture medium was removed and cells were lysed in lysis buffer provided by Promega's luciferase assay system. Following the manufacturer's instruction, 100 μL of luciferase substrate was added to the lysed cells and luciferase activity was measured in a TopCount luminometer.
(Replicon systems follow genome replication, usually without infectious particles.)

The test system of data set [4] is Huh-luc/neo replicon cells. The data set can be described thus: Metabolism study: intracellular triphosphate analog concentration. Conditions: PD-A-8b to TP-8a versus B-7 to TP-3, Huh-luc/neo replicon cells. In kind it is in vitro ADME. The source says: Applicants have observed that monophosphate prodrugs of nucleoside analogs with a nitrogen at the X^1 position can have enhanced activity over their counterparts with a carbon at the X^1 position. This difference in activity correlates to the amount of the active triphosphate analogs of the compounds in cells. This can be quantified by a metabolism study which quantifies the intracellular concentration of the triphosphate analogs. The higher intracellular concentration of the triphosphate metabolite correlates to the prodrug with enhanced activity.
Huh-luc/neo replicon cells containing HCV genotype 1b subgenomic replicons were maintained in Dulbecco's modified eagle medium containing glutamax supplemented with 10% heat inactivated fetal bovine serum, penicillin-streptomycin, and G418 disulphate salt solution. Cells were transferred to twelve well tissue culture plates by trypsonization and grown to confluency (0.88×10^6 cells/well). Cells were treated for 24 hours with 10 μM nucleoside, or 10 μM prodrug. After 24 hours, cells were washed 2 times with 2.0 mL ice cold 0.9% sodium chloride saline. […] Intracellular levels of the nucleoside triphosphates were quantified based on authentic standard curves by liquid chromatography coupled to tandem mass spectrometry.

Data set [5] concerns the target T2, S282T mutant HCV Δ21 NS5b polymerase. The following applies: value taken from the source in the Note column; cited from earlier work.
The target in data set [6] is T1, wild type HCV Δ21 NS5b polymerase. The following applies: read-out: WT IC50, value taken from the source in the Note column; cited from earlier work.
[7] abbreviates: replicon cells, 3 days incubation, luciferase readout, read-out: EC50.

Read-outs that look alike come from different tables or passages of the source.

The compound `C[C@@]1(F)[C@H](O)[C@@H](COP(=O)(O)OP(=O)(O)OP(=O)(O)O)O[C@H]1c1ccc2c(N)ncnn12` had an IC50 in data set [1] of 0.034 µM.
Compound `C[C@@]1(F)[C@H](O)[C@@H](COP(=O)(O)OP(=O)(O)OP(=O)(O)O)O[C@H]1c1cnc2c(N)ncnn12` returned an IC50 in data set [1] of 0.3 µM. For the same compound, in data set [2], 1.6 µM corresponded to half-maximal inhibition (IC50) and the “fold shift (S282T IC50 vs WT IC50)” value is given as “(5.3 fold shift)”.
Turning to `CC(C)OC(=O)OCOP(=O)(OCOC(=O)OC(C)C)OC[C@H]1O[C@@](C#N)(c2ccc3c(N)ncnn23)[C@](C)(F)[C@@H]1O` [Compound 10], the EC50 in data set [3] (setting [7]) lay within 6.5 to 8 µM.
Still for that read-out and setting: next, `C[C@@]1(F)[C@H](O)[C@@H](COP(=O)(O)NCCc2c[nH]c3ccccc23)O[C@@]1(C#N)c1ccc2c(N)ncnn12` [Compound 22]: 31 to 45 µM; `C[C@@]1(F)[C@@H]2OP(=O)(O)OC[C@H]2O[C@@]1(C#N)c1ccc2c(N)ncnn12` [Compound 23]: 39.4 to 40.3 µM; `CC(C)OP1(=O)OC[C@H]2O[C@@](C#N)(c3ccc4c(N)ncnn34)[C@](C)(F)[C@@H]2O1` (stereo partly shown) [Compound 24]: 40.3 to 70.5 µM.
As for `CCCCCCCOC(=O)[C@H](C)NP1(=O)OC[C@H]2O[C@@](C#N)(c3ccc4c(N)ncnn34)[C@](C)(F)[C@@H]2O1` (stereo partly shown) [Compound 25], the EC50 in data set [3] (setting [7]) lay within 9.7 to 10 µM.
As to `CC(C)(C)C(=O)SCCOP(=O)(OCCSC(=O)C(C)(C)C)OC[C@H]1O[C@@H](c2cnc3c(N)nc(N)nn23)[C@](C)(F)[C@@H]1O` [Compound A-1], the EC50 in data set [3] (setting [7]) came out at 23 µM.
Still for that read-out and setting: as for `CCOC(=O)[C@H](C)NP(=O)(OC[C@H]1O[C@@](C#N)(c2ccc3c(N)ncnn23)[C@](C)(F)[C@@H]1O)Oc1ccccc1` (stereo partly shown) [Compound B-1], the figure is 1.4 to 4.3 µM.
Same read-out and setting: as for `CC(C)OC(=O)[C@H](C)NP(=O)(OC[C@H]1O[C@@](C#N)(c2ccc3c(N)ncnn23)[C@](C)(F)[C@@H]1O)Oc1ccccc1` (stereo partly shown) [Compound B-3], the figure is 16 to 28 µM; as for `CCC(CC)COC(=O)C(C)(C)NP(=O)(OC[C@H]1O[C@@](C#N)(c2ccc3c(N)ncnn23)[C@](C)(F)[C@@H]1O)Oc1ccccc1` (stereo partly shown) [Compound B-4], 8.4 to 19 µM.
On the same count and under the same terms, as for `CCOC(=O)CNP(=O)(OC[C@H]1O[C@@](C#N)(c2ccc3c(N)ncnn23)[C@](C)(F)[C@@H]1O)Oc1ccccc1` (stereo partly shown) [Compound B-5], the figure is 1.93 to 25.5 µM; as for `CCOC(=O)[C@H](C)NP(=O)(OC[C@H]1O[C@@](C#N)(c2ccc3c(N)ncnn23)[C@](C)(F)[C@@H]1O)Oc1cccc2ccccc12` (stereo partly shown) [Compound B-6], 3.75 to 11.1 µM.
On to `CCOC(=O)[C@H](C)NP(=O)(OC[C@H]1O[C@@H](c2ccc3c(N)ncnn23)[C@](C)(F)[C@@H]1O)Oc1ccccc1` (stereo partly shown) [Compound B-7], for which the EC50 in data set [3] (setting [7]) was in the range of 63 to 73 µM.
Take `CCOC(=O)[C@H](C)NP(=O)(OC[C@H]1O[C@@H](c2ccc3c(N)ncnn23)[C@](C)(F)[C@@H]1O)Oc1cccc2ccccc12` (stereo partly shown) [Compound B-8]: in data set [3] (setting [7]), the EC50 lay within 35 to 60 µM.
For the compound `CCOC(=O)[C@@H](NP(=O)(OC[C@H]1O[C@@](C#N)(c2ccc3c(N)ncnn23)[C@](C)(F)[C@@H]1O)Oc1ccccc1)C(C)C` (stereo partly shown) [Compound C-1], the EC50 in data set [3] (setting [7]) fell in the range of 67 to 70 µM.
The same measure, in the same setting: as for `CCOC(=O)[C@H](CCSC)NP(=O)(OC[C@H]1O[C@@](C#N)(c2ccc3c(N)ncnn23)[C@](C)(F)[C@@H]1O)Oc1ccccc1` (stereo partly shown) [Compound C-2], the figure is 3.9 to 12 µM; as for `CCOC(=O)[C@H](Cc1c[nH]c2ccccc12)NP(=O)(OC[C@H]1O[C@@](C#N)(c2ccc3c(N)ncnn23)[C@](C)(F)[C@@H]1O)Oc1ccccc1` (stereo partly shown) [Compound C-3], 43 to 84 µM.
Take `CCOC(=O)[C@H](Cc1ccccc1)NP(=O)(OC[C@H]1O[C@@](C#N)(c2ccc3c(N)ncnn23)[C@](C)(F)[C@@H]1O)Oc1ccccc1` (stereo partly shown) [Compound C-4]: the EC50 in data set [3] (setting [7]) fell in the range of 9.8 to 31 µM.
In data set [3], `CCOC(=O)[C@@H]1CCCN1P(=O)(OC[C@H]1O[C@@](C#N)(c2ccc3c(N)ncnn23)[C@](C)(F)[C@@H]1O)Oc1ccccc1` (stereo partly shown) [Compound C-5] gave an EC50 of 24 to 28 µM.
Turning to `CCOC(=O)[C@H](CCS(C)(=O)=O)NP(=O)(OC[C@H]1O[C@@](C#N)(c2ccc3c(N)ncnn23)[C@](C)(F)[C@@H]1O)Oc1ccccc1` (stereo partly shown) [Compound C-6], the EC50 in data set [3] (setting [7]) amounted to 11 µM.
Take `CCOC(=O)[C@H](C)NP(=O)(OC[C@H]1O[C@@H](c2cnc3c(N)ncnn23)[C@](C)(F)[C@@H]1O)Oc1ccccc1` (stereo partly shown) [PD-A-8b]: the EC50 in data set [3] (setting [7]) came out at 0.68 µM. Besides, the “efficiency of activation of prodrug to its triphosphate analog, compared with B-7” value in data set [4] is recorded as “more than two orders of magnitude more efficient”.
Turning to `C[C@@]1(F)[C@H](O)[C@@H](COP(=O)(O)OP(=O)(O)OP(=O)(O)O)O[C@H]1c1cnc2c(=O)[nH]c(N)nn12` [TP-1], the IC50 in data set [1] and in data set [2] was 0.15 µM each time. Moreover, the “fold shift (S282T IC50 vs WT IC50)” value in data set [2] is listed as “(1 fold shift)”.
With `C[C@@]1(F)[C@H](O)[C@@H](COP(=O)(O)OP(=O)(O)OP(=O)(O)O)O[C@@]1(C#N)c1ccc2c(N)ncnn12` [TP-2], in data set [1], it took 0.24 µM to reach half-maximal inhibition (IC50). Moreover, in data set [2], half-maximal inhibition (IC50) was put at 1.6 µM and the “fold shift (S282T IC50 vs WT IC50)” value is “(7 fold shift)”.
For `C[C@@]1(O)[C@H](O)[C@@H](COP(=O)(O)OP(=O)(O)OP(=O)(O)O)O[C@@]1(C#N)c1ccc2c(N)ncnn12` [triphosphate of (2R,3R,4R,5R)-2-(4-aminopyrrolo[1,2-f][1,2,4]triazin-7-yl)-3,4-dihydroxy-5-(hydroxymethyl)-3-methyl-tetrahydrofuran-2-carbonitrile], the IC50 was 111 µM in data set [5] and 0.525 µM in data set [6]. Further, the “fold shift (S282T IC50 vs WT IC50)” value in data set [2] is “WO/2009/132135 (242 fold shift)”.

One may read the IC50 as the concentration at which inhibition is half-maximal. By EC50 is commonly meant the midpoint of the concentration-response curve.
